Laboratory results taken from patent US20260007741A1, “LIPID NANOPARTICLES FOR DELIVERY OF NUCLEIC ACIDS AND VACCINES” (priority 2024, published 2026).
Where two headings read alike, the source gives them in different places.

Tests used:
MutuDC1940 cells = assay: Transfection efficiency of mCherry mRNA LNPs in murine dendritic cells (flow cytometry); format: cell-based; conditions: for mRNA endosomal escape and translation / mRNA transfection: MutuDC1940 cells, mCherry mRNA LNPs; for transfection activity when incorporated into LNPs: murine dendritic cells (Example 8)
Description: • 1. MutuDC1940 cells (Applied Biological Materials, T0528) were grown according to supplier's instructions in T75 flasks. They were plated at 180,000 cells/well into 24-well plate one day prior to transfection. • 2. LNPs were added in triplicate to each well at the desired mRNA concentration (e.g. 1 μg/mL) in 1 mL media and after 24 h the cells were washed once with DPBS (VWR 02-0119-1000). • 3. 0.2 mL of DPBS (plus 5 mM EDTA, pH 7.4) was then added to facilitate detachment. • 4. The cells were placed at 37° C. for 3 min, until detached. • 5. 0.5 ml DPBS added to each well and the liquid transferred to a flow cytometry tube (Falcon 5 mL #352054). • 6. The tube was centrifuged at 1100 rpm for 3-5 min and the liquid poured off. • 7. 100 μL of Zombie Violet (Biolegend) (diluted 1:500 in PBS) was added to each tube. • 8. The tubes were gently tapped to resuspend cells and placed in the dark for 15 min at RT. • 9. To the cells 0.5 mL of (paraformaldehyde 4% in PBS:DPBS 1:1) was added and the cells flicked gently to resuspend and put on ice for 30 min. Another 2 ml PBS was added. • 10. The cells were pelleted as above and resuspended in 0.5 mL DPBS with 5% BSA and placed in the fridge until needed.
Cells suspensions were analyzed by an Attune NxT flow cytometer using the VL1 and YL2 for live/dead and mCherry fluorescence signals respectively. Gating analysis was performed on FloJo software.

TLR7/8 = assay: In vivo inflammatory profile of UUGU oligoribonucleotides in LNP formulations using different ICLs (Example 28; serum and dLNs); parameters: species or system mice; conditions: 1 ug UUGU dose
Description: Blood and dLNs (pooled iliac, popliteal and inguinal LNs) were harvested 6 hrs post-injection. […] No. 740622). LNs were weighed prior to lysis, and analyte concentrations were converted from pg/mL to pg/mg of tissue mass. […] The analyte concentrations in the blood serum are reported in Table 68 and the mean fold changes over vehicle treatment are shown in Table 69. The analyte concentrations in the dLNs are reported in Table 70 and the mean fold changes over vehicle treatment are shown in Table 71. The primary aim of this study was to examine the effect of various ionizable cationic lipids (ICLs) on the delivery of a UUGU oligoribonucleotide to TLR7/8 located intracellularly in endolysosomal compartments. We also sought to determine whether PS-targeting of LNPs influenced activity. […] UUGU oligos were encapsulated in LNPs formulated with KC-OA family ICLs, AKG-UO-DM2, DODMA, or DODAP. We also tested the ALC-0315 and SM-102 LNP formulations. The effect of PS targeting on biological activity was also assessed using either DOPS or DPPS formats.

[1] = for % of main lipid peak to To: 1% H2O2/100 μM Fe(III)Cl, 37° C.
Description: The aim of this studies was to compare stability of ionizable cationic lipids under accelerated oxidation.
Prior to the experiment, 75 μl of a lipid stock was mixed with 75 μl of ultra-pure water (Rx Biosciences, cat #P01-UPW02-1000) to make 0.5 mM of cationic lipids and 5 mM of linoleic acid respectively. A combined stock in water of 10% H2O2 (Sigma-Aldrich, cat #H1009) and 1 mM of Fe(III)Cl (Sigma-Aldrich, cat #372870) was freshly by prepared prior to the experiment. To make 1% final concentration of H2O2 and 100 μM Fe(III)Cl, 15 μl of 10% H2O2/1 mM Fe(III)C1 stock was added to 135 μl of individual lipids The liposomes and individual lipids were incubated with H2O2/Fe(III)C1 at 37° C. and then 5 μl from each sample was taken at different time points (0, 24, 48, 72 and 96 hours) and dissolved in 90 μl of MeOH for HPLC analysis. Degradation of the main lipid peak was analyzed using Thermo Scientific Vanquish Flex UHPLC occupied with Charged Aerosol Detector (CAD) and Phenomenex™ Kinetex C8 column (L=150 mm, D=2.1 mm, Particle Size=1.7 μm, 100 A).
The data are presented as a percentage of the main lipid peak measured at different time points relative to the lipid peak measured at time zero.

human dendritic cells = assay: Transfection efficiency of mCherry mRNA LNPs in human dendritic cells (flow cytometry); conditions: human dendritic cells (Example 9)
Description: Four days prior to transfection, monocytes were isolated using CD14 isolation kit (StemCell) from PBMCs of healthy donors. […] The monocytes were cultured with IL-4 (R&D 1000 IU/mL) and GM-CSF (R&D, 800 IU/mL) in a 6 well dish at 1×10^6 cells/mL at 37° C., 5% CO2. After 4 days the immature DCs were harvested and seeded in a 96 well round bottom plate at 50,000 cells/well. LNPs were thawed by placing the vials in a 37° C. water bath for 30 seconds, or until the sample had almost fully melted. The vials were immediately placed on ice until use. The LNPs were added to final concentrations of 1 μg/ml and 0.1 μg/mL mRNA. For 1 μg/mL treatment, LNPs were added directly to each well then wells were mixed by pipetting. For 0.1 μg/mL treatment, LNPs were diluted 1:10 in complete media then added to each well and mixed by pipetting. After 4 h a maturation cytokine cocktail was added directly to each well consisting of TNF-α (R&D, 10 ng/mL), IL-1b (R&D, 2 ng/mL), IL-6 (R&D, 1000 IU/mL), and PGE1 (R&D, 1 μg/mL). After 24 h, the cells were centrifuged, washed in PBS and analyzed by flow cytometry for mCherry fluorescence. Gating analysis was performed using CytExpert software.

[2] = Apparent solubility of phosphatidylserine salts in ethanol (shake flask); format: physicochemical; conditions: for Solubility, mM phosphatidylserine: 100% ethanol at room temperature, 24 hours, average±SD (N=3)
Description: Apparent solubilities of phosphatidylserine salts in ethanol were determined by shake flask technique. Sodium and ammonium salts of phosphatidylserines in the powder form were obtained from Avanti Polar Lipids (Alabama, USA). Aliquots of phosphatidylserine salt powder were placed in 12×75 borosilicate glass tubes in triplicate. Three mL of 200 proof ethanol (catalog number E-7023, MilliporeSigma, USA) were added, the tubes were closed with polyethylene snap caps, agitated using vortex mixer for 10-15 s to obtain uniform suspensions, and placed in a horizontal position on a rocking platform at room temperature (20-22° C.) overnight. The ambient temperature at the end of incubation was 20.4-20.9° C. After 24 hours incubation, the suspensions were visually checked for the presence of a solid phase, allowed to settle under gravity, and the supernatant solutions were passed through a 0.2-μm PTFE syringe membrane filters. The first 0.5 ml of the filtrate was discarded, the next 1 ml was collected, and phosphatidylserine in the filtrates was quantified by phospholipid phosphate assay as follows: 20 μL aliquots of the filtrate were taken in triplicate into glass tubes, ethanol was evaporated in a stream of argon at 70° C., and the residue was digested in a mixture of 60 μL concentrated sulfuric acid and 20 μL 30% hydrogen peroxide for 10 min at 180-190° C. The digested samples were diluted with 1 mL of deionized water, 20 μL of 10% sodium sulfite was added to destroy any residual peroxide, and the samples were incubated on a boiling water bath for 15 min to hydrolyze any condensed phosphate species. The samples were chilled down to room temperature, mixed with 0.2 mL of 2% (w/w) ammonium molybdate solution and 20 μL of 10% (w/w) ascorbic acid solution, incubated on a boiling water bath for 10 min, and chilled down in a water bath at room temperature. The phosphate concentration was determined from the optical density of the formed blue phosphomolybdic acid at 825 nm using five-point standard curve from concurrently run standards prepared from the NIST-traceable commercial phosphate standard solution diluted to cover the range of 0-2 mM phosphate (coefficient of determination R^2 >0.9999). Solubility of phosphatidylserine salts was expressed in molarity units of phosphatidylserine (Table 40). The data are average±SD (N=3).

TLR9 = assay: In vivo inflammatory profile of CpG-ODN 1018 in LNP formulations with various ICLs (Example 27; serum and dLNs); parameters: species or system BALB/c mice; conditions: 1 μg dose CpG
[3] = Semple et al., (2010) Nature Biotech. 28 (2) 172-176; cited from earlier work

Compound: CCCCCCCC/C=C\CCCCCCCC(=O)OC[C@H](CCCN(C)C)OC(=O)CCCCCCC/C=C\CCCCCCCC [AKG-OA-DM3, (S)-5-(dimethylamino)pentane-1,2-diyl dioleate]
- mRNA endosomal escape and translation / mRNA transfection (MutuDC1940 cells): relatively poor for mRNA transfection

Compound: CCCCCCCC/C=C\CCCCCCCCOC[C@H](CN(C)C)OCCCCCCCC/C=C\CCCCCCCC [DODMA, reference compound]
- induction of a proinflammatory signature by UUGU LNPs by ICL (TLR7/8): most efficient

Compound: CCCCC/C=C\C/C=C\CCCCCCCCC1(CCCCCCCC/C=C\C/C=C\CCCCC)OCC(CCCN(C)C)O1 (stereo not drawn) [KC3, reference compound]
- degradation relative to other cationic lipids under the forced oxidation with H2O2 [1]: fastest degradation
- % of main lipid peak to To ([1]; 24 h): 11.2 ± 1.0%
- % of main lipid peak to To ([1]; 48 h): 10.5 ± 0.5%
- % of main lipid peak to To ([1]; 72 h): 0 ± 0%

Compound: CCCCCCCC/C=C\CCCCCCCCC1(CCCCCCCC/C=C\CCCCCCCC)OC[C@H](CCN(C)C)O1 [KC2-OA, 2-((S)-2,2-di((Z)-octadec-9-en-1-yl)-1,3-dioxolan-4-yl)-N,N-dimethylethan-1-amine]
- mRNA endosomal escape and translation / mRNA transfection (MutuDC1940 cells): relatively efficient

Compound: CCCCCCCC/C=C\CCCCCCCC1(CCCCCCC/C=C\CCCCCCCC)OC[C@H](CCCN(C)C)O1 [KC3-17 (C8:1), 3-((S)-2,2-di((Z)-heptadec-8-en-1-yl)-1,3-dioxolan-4-yl)-N,N-dimethylpropan-1-amine]
- transfection activity when incorporated into LNPs (human dendritic cells): highest activity
- % of main lipid peak to To ([1]; 24 h): 66.1 ± 0.6%
- % of main lipid peak to To ([1]; 48 h): 58.4 ± 1.5%
- % of main lipid peak to To ([1]; 72 h): 45.9 ± 4.7%
- transfection activity when incorporated into LNPs (MutuDC1940 cells): highest activity

Compound: CCCCCCCCCCCCCCCC(=O)OC[C@H](COP(=O)(O)OC[C@H](N)C(=O)[O-])OC(=O)CCCCCCCCCCCCCCC.[Na+] [DPPS sodium]
- Solubility, mM phosphatidylserine [2]: 0.201 ± 0.004 mM

Compound: CCCCCCCCCCCCCCCCCC(=O)OC[C@H](COP(=O)(O)OC[C@H](N)C(=O)O)OC(=O)CCCCCCCCCCCCCCCCC.N [DSPS ammonium]
- Solubility, mM phosphatidylserine [2]: 0.034 ± 0.004 mM

Compound: CCCCCC/C=C\CCCCCCCCC1(CCCCCCCC/C=C\CCCCCC)OC[C@H](CCCN(C)C)O1 [KC3-PA, 3-((S)-2,2-di((Z)-hexadec-9-en-1-yl)-1,3-dioxolan-4-yl)-N,N-dimethylpropan-1-amine]
- transfection activity when incorporated into LNPs (human dendritic cells): highest activity
- % of main lipid peak to To ([1]; 24 h): 62.7 ± 0.1%
- % of main lipid peak to To ([1]; 48 h): 59.2 ± 0.8%
- % of main lipid peak to To ([1]; 72 h): 60.2 ± 0.6%

Compound: CCCCCCCCCCCCCCCCCC(=O)OC[C@H](COP(=O)(O)OC[C@H](N)C(=O)[O-])OC(=O)CCCCCCCCCCCCCCCCC.[Na+] [DSPS sodium]
- Solubility, mM phosphatidylserine [2]: 0.111 ± 0.009 mM

Compound: CCCCC/C=C\CCCC/C=C\CCCCCC1(CCCCC/C=C\CCCC/C=C\CCCCC)OC[C@H](CCCN(C)C)O1 [KC3-01, 3-((S)-2,2-di((6Z,12Z)-octadeca-6,12-dien-1-yl)-1,3-dioxolan-4-yl)-N,N-dimethylpropan-1-amine]
- transfection activity when incorporated into LNPs (human dendritic cells): highest activity

Compound: CCCCCCCC/C=C\CCCCCCCC(=O)OC[C@H](CCN(C)C)OC(=O)CCCCCCC/C=C\CCCCCCCC [AKG-OA-DM2, (S)-4-(dimethylamino)butane-1,2-diyl dioleate]
- levels of IL-12p70 and type I IFN-α in the blood and dLNs (TLR9): highest levels
- induction of a proinflammatory signature by UUGU LNPs by ICL (TLR7/8): most potent LNP adjuvant formulation
- induction of a proinflammatory signature by UUGU LNPs by ICL (TLR7/8; listed as AKG-UO-DM2): most efficient
- mRNA endosomal escape and translation / mRNA transfection (MutuDC1940 cells): relatively poor for mRNA transfection

Compound: CCCCCCCC/C=C\CCCCCCCCC1(CCCCCCCC/C=C\CCCCCCCC)OC[C@H](CCCN(C)C)O1 [KC3-OA, 3-((S)-2,2-di((Z)-octadec-9-en-1-yl)-1,3-dioxolan-4-yl)-N,N-dimethylpropan-1-amine]
- transfection activity when incorporated into LNPs (human dendritic cells): highest activity
- % of main lipid peak to To ([1]; 24 h): 88.9 ± 0.5%
- % of main lipid peak to To ([1]; 48 h): 84.6 ± 0.9%
- % of main lipid peak to To ([1]; 72 h): 79.0 ± 0.1%
- induction of a proinflammatory signature by UUGU LNPs by ICL (TLR7/8): most efficient
- mRNA endosomal escape and translation / mRNA transfection (MutuDC1940 cells): relatively efficient
- transfection activity when incorporated into LNPs (MutuDC1940 cells): highest activity

Compound: CCCCCCCCCCCCCCCCCC1(CCCCCCCCCCCCCCCCC)OC[C@H](CCCN(C)C)O1 [KC3-17, (S)-3-(2,2-diheptadecyl-1,3-dioxolan-4-yl)-N,N-dimethylpropan-1-amine]
- % of main lipid peak to To ([1]; 24 h): 92.9 ± 0.3%
- % of main lipid peak to To ([1]; 48 h): 91.8 ± 1.2%
- % of main lipid peak to To ([1]; 72 h): 90.2 ± 1.2%
- transfection activity when incorporated into LNPs (MutuDC1940 cells): completely inactive

Compound: CCCCCCCC/C=C\CCCCCCCCC1(CCCCCCCC/C=C\CCCCCCCC)OCC(CCCCN(C)C)O1 (racemic) [KC4-OA, 4-rac-2,2-di((Z)-octadec-9-en-1-yl)-1,3-dioxolan-4-yl)-N,N-dimethylbutan-1-amine]
- mRNA endosomal escape and translation / mRNA transfection (MutuDC1940 cells): relatively efficient

Compound: CCCCCCCCCCCCCCCC(=O)OC[C@H](COP(=O)(O)OC[C@H](N)C(=O)O)OC(=O)CCCCCCCCCCCCCCC.N [DPPS ammonium]
- ethanol solubility compared to ammonium salt of DSPS or the sodium salts [2]: several-fold higher
- Solubility, mM phosphatidylserine [2]: 0.865 ± 0.060 mM

Compound: CCCCC/C=C\C/C=C\CCCCCCCCC1(CCCCCCCC/C=C\C/C=C\CCCCC)OCC(CCN(C)C)O1 (stereo not drawn) [KC2]
- activity of KC2 compared to KC3 [3]: 6 fold
